Measured values from patent publication US20260098030A1, “NEGATIVE ALLOSTERIC MODULATORS OF METABOTROPIC GLUTAMATE RECEPTOR 2” (Vanderbilt University, priority 2022, published 2026).

target: T1, human mGlu2 (Homo sapiens, UniProt Q14416); experiment: mGlu GIRK cell-based thallium flux assay, human mGlu2; conditions: HEK-293 cells co-expressing human mGlu2 and GIRK, EC80 glutamate
T1 construct: expressed in transfected cells; host or cells: HEK-293 cells stably co-expressing GIRK channels
Method: Human embryonic kidney (HEK-293) cell lines stably co-expressing human or rat mGlu2 and G protein-coupled inwardly rectifying potassium (GIRK) channels, or human mGlu3 and GIRK, were used for in vitro evaluation of compound activity in thallium flux assay using a fluorescent thallium indicator dye.
The day before the assay, GIRK cells co-expressing human mGlu3, human or rat mGlu2, as described above, were plated in black-walled, clear-bottomed, amine-coated 384-well plates at a density of 15,000 cells/20 μL/well in the assay medium (glutamine-depleted basal DMEM supplemented with 10% dialyzed FBS, 20 mM HEPES, 1 mM sodium pyruvate). Cells were incubated at 37° C. in the presence of 5% CO2. The next day, assay buffer (Hanks balanced salt solution, 20 mM HEPES, 4.16 mM sodium bicarbonate, pH 7.2) was prepared to dilute compounds and Thallos AM fluorescent dye solution. The 2× Thallos dye solution (final concentration 0.34 μM to the cells) was prepared by mixing the dye stock (2.97 mM in DMSO) to 1:1 with 10% pluronic acid before adding to the assay buffer. Cells were washed with assay buffer using a microplate washer to remove the medium, resulting in 20 μL of buffer remaining in each well. Immediately, 20 μL of 2× Thallos dye solution was added to cells, and incubated for one hour at 25° C. During the cell dye loading incubation period, a 10-point concentration serial dilution of compound was created from a 10 mM DMSO compound stock by performing a 1:3 serial dilution in DMSO using the Bravo liquid handler. The 2× compound plate was generated by transferring 0.24 μL of the diluted compound in each well to a daughter plate using an Echo acoustic liquid handler. This is further diluted in 40 μL assay buffer, resulting in a range from 30 μM to 1.5 nM final concentration in the assay. The agonist plate (5×) was prepared to include EC80 glutamate concentration (a concentration to elicit 80% of a maximally effective glutamate concentration) in thallium buffer (125 mM […], 1 mM magnesium sulfate, 1.8 mM calcium sulfate, 5 mM glucose, 10 mM HEPES, pH 7.2, 12.5 mM thallium sulfate).
After dye-loading, cell plates were washed with assay buffer to remove excess extracellular dye using a microplate washer, resulting in 20 μL of buffer remaining in each well. After a ten-minute equilibration period, cell, compound and agonist plates were loaded into a Hamamatsu μCell kinetic imaging plate reader equipped with liquid handler to monitor fluorescence changes at 480 nm excitation and 540 nm emission settings. Briefly, after collection of baseline fluorescence, 20 μL of compound was added and incubated for two minutes and twenty seconds. This is immediately followed by adding 10 μL of glutamate-thallium buffer to the wells containing compound. The fluorescent signal was monitored an additional 2.5 minutes after the glutamate addition. Multiple reference wells containing no compound received either no glutamate (for a baseline reference), EC80 glutamate, or ECmax glutamate (for normalization to maximum response). Fluorescence was measured throughout the experiment at a frequency of 1 measurement per every 2 seconds before the glutamate addition and a frequency of 1 measurement per every 1 second after the glutamate addition. Each compound concentration series occurred one time in each plate, and replicates from two or three plates were used in each experimental run. Thallium solutions were handled and disposed of according to guidelines from the Vanderbilt University Chemical Safety department.
Data were normalized using a static ratio function (F/F0) by dividing every fluorescent measurement by the initial fluorescent value for the corresponding well. The increase in signal resulting from the glutamate/thallium addition of the second add was measured by determining the slope from 3 seconds to 13 seconds after the addition. […]

T1 sequence (Q14416 19-872): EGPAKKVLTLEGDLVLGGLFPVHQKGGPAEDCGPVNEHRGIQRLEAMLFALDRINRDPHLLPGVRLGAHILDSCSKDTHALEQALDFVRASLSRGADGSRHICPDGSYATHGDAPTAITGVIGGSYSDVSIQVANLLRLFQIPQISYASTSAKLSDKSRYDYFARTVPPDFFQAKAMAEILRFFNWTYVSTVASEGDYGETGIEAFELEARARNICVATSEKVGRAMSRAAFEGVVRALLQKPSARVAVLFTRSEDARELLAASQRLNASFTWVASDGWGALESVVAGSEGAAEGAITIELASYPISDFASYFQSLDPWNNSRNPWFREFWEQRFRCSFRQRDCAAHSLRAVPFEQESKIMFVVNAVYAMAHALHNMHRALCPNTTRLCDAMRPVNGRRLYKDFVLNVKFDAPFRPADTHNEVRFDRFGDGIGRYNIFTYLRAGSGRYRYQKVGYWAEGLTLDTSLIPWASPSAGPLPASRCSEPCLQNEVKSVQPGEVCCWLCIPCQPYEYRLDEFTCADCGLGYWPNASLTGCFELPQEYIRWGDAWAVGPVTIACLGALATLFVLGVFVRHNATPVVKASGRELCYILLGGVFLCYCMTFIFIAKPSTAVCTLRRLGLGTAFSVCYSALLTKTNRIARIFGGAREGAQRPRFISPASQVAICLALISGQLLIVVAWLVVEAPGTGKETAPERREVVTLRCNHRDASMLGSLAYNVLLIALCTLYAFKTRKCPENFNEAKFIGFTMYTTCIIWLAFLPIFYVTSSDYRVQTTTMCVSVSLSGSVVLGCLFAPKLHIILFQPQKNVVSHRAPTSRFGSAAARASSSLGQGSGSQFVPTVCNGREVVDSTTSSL

IC50 | Compound
> 10000 nM | COc1ccc(-c2cc3c(cc2-c2cccc(C#N)c2)CNC3=O)cc1C#N [Compound 172, 5-(6-(3-cyanophenyl)-3-oxoisoindolin-5-yl)-2-methoxybenzonitrile]
7340 nM | COc1ccc(-c2cc3c(cc2-c2cccc(C#N)c2)CNC3=O)c(Cl)c1 [Compound 173, 3-(6-(2-chloro-4-methoxyphenyl)-1-oxoisoindolin-5-yl)benzonitrile]
> 10000 nM | COc1cc(F)c(-c2cc3c(cc2-c2cccc(C#N)c2)CNC3=O)cc1F [Compound 174, 3-(6-(2,5-difluoro-4-methoxyphenyl)-1-oxoisoindolin-5-yl)benzonitrile]
> 10000 nM | COc1ccc(-c2cc3c(cc2-c2cccc(C#N)c2)CNC3=O)c(C)c1 [Compound 175, 3-(6-(4-methoxy-2-methylphenyl)-1-oxoisoindolin-5-yl)benzonitrile]
> 10000 nM | N#Cc1cccc(-c2cc3c(cc2-c2cc(C#N)ccc2F)C(=O)NC3)c1 [Compound 176, 3-(6-(3-cyanophenyl)-3-oxoisoindolin-5-yl)-4-fluorobenzonitrile]
1350 nM | Cc1cc(-c2cc3c(cc2-c2cccc(C#N)c2)CNC3=O)c(F)cc1F [Compound 177, 3-(6-(2,4-difluoro-5-methylphenyl)-1-oxoisoindolin-5-yl)benzonitrile]
> 10000 nM | N#Cc1cccc(-c2cc3c(cc2-c2ccc(F)c(C#N)c2)C(=O)NC3)c1 [Compound 178, 5-(6-(3-cyanophenyl)-3-oxoisoindolin-5-yl)-2-fluorobenzonitrile]
> 10000 nM | N#Cc1cccc(-c2cc3c(cc2-c2ccc(C#N)c(C(F)(F)F)c2)C(=O)NC3)c1 [Compound 179, 4-(6-(3-cyanophenyl)-3-oxoisoindolin-5-yl)-2-(trifluoromethyl)benzonitrile]
> 10000 nM | N#Cc1cccc(-c2cc3c(cc2-c2cc(C(F)(F)F)ccc2F)C(=O)NC3)c1 [Compound 180, 3-(6-(2-fluoro-5-(trifluoromethyl)phenyl)-1-oxoisoindolin-5-yl)benzonitrile]
> 10000 nM | Cc1cc(-c2cc3c(cc2-c2cccc(C#N)c2)CNC3=O)c(F)cc1C#N [Compound 181, 4-(6-(3-cyanophenyl)-3-oxoisoindolin-5-yl)-5-fluoro-2-methylbenzonitrile]
> 10000 nM | COc1c(F)cc(-c2cc3c(cc2-c2cccc(C#N)c2)CNC3=O)cc1F [Compound 182, 3-(6-(3,5-difluoro-4-methoxyphenyl)-1-oxoisoindolin-5-yl)benzonitrile]

Second part, the compound before the results:

Compound | IC50
CN1CCN(c2ccccc2-c2cc3c(cc2-c2ccc(F)cc2F)C(=O)NC3)CC1 [Compound 150, 6-(2,4-difluorophenyl)-5-(2-(4-methylpiperazin-1-yl)phenyl)isoindolin-1-one] | > 10000 nM
Cn1nncc1-c1cccc(-c2cc3c(cc2-c2ccc(F)cc2F)C(=O)NC3)c1 [Compound 151, 6-(2,4-difluorophenyl)-5-(3-(1-methyl-1H-1,2,3-triazol-5-yl)phenyl)isoindolin-1-one] | 857 nM
[2H]C([2H])([2H])n1nncc1-c1cccc(-c2cc3c(cc2-c2ccc(F)cc2F)C(=O)NC3)c1 [Compound 152, 6-(2,4-difluorophenyl)-5-(3-(1-(methyl-d3)-1H-1,2,3-triazol-5-yl)phenyl)isoindolin-1-one] | 693 nM
[2H]C([2H])(C)n1nncc1-c1cccc(-c2cc3c(cc2-c2ccc(F)cc2F)C(=O)NC3)c1 [Compound 153, 6-(2,4-difluorophenyl)-5-(3-(1-(ethyl-1,1-d2)-1H-1,2,3-triazol-5-yl)phenyl)isoindolin-1-one] | 727 nM
O=C1NCc2cc(-c3cnn(CCN4CCOCC4)c3)c(-c3ccc(F)cc3F)cc21 [Compound 154, 6-(2,4-difluorophenyl)-5-(1-(2-morpholinoethyl)-1H-pyrazol-4-yl)isoindolin-1-one] | > 10000 nM
O=C1NCc2cc(-c3cnn(C4COC4)c3)c(-c3ccc(F)cc3F)cc21 [Compound 155, 6-(2,4-difluorophenyl)-5-(1-(oxetan-3-yl)-1H-pyrazol-4-yl)isoindolin-1-one] | > 10000 nM
COc1cc(F)ccc1-c1cc2c(cc1-c1cccc(C#N)c1)CNC2=O [Compound 156, 3-(6-(4-fluoro-2-methoxyphenyl)-1-oxoisoindolin-5-yl)benzonitrile] | 660 nM
COc1ccc(-c2cc3c(cc2-c2cccc(C#N)c2)CNC3=O)c(F)c1 [Compound 157, 3-(6-(2-fluoro-4-methoxyphenyl)-1-oxoisoindolin-5-yl)benzonitrile] | 736 nM
N#Cc1cccc(-c2cc3c(cc2-c2ccc(F)c(F)c2)C(=O)NC3)c1 [Compound 158, 3-(6-(3,4-difluorophenyl)-1-oxoisoindolin-5-yl)benzonitrile] | 3730 nM
N#Cc1cccc(-c2cc3c(cc2-c2ccccc2F)C(=O)NC3)c1 [Compound 159, 3-(6-(2-fluorophenyl)-1-oxoisoindolin-5-yl)benzonitrile] | 1720 nM
N#Cc1cccc(-c2cc3c(cc2-c2c(F)cc(F)cc2F)C(=O)NC3)c1 [Compound 160, 3-(1-oxo-6-(2,4,6-trifluorophenyl)isoindolin-5-yl)benzonitrile] | 218 nM
Cc1ccc(-c2cc3c(cc2-c2cccc(C#N)c2)CNC3=O)c(C)c1 [Compound 161, 3-(6-(2,4-dimethylphenyl)-1-oxoisoindolin-5-yl)benzonitrile] | 4590 nM
N#Cc1cccc(-c2cc3c(cc2-c2ccc(OC(F)F)cc2F)C(=O)NC3)c1 [Compound 162, 3-(6-(4-(difluoromethoxy)-2-fluorophenyl)-1-oxoisoindolin-5-yl)benzonitrile] | 891 nM
Cn1cc(S(=O)(=O)Nc2ccccc2-c2cc3c(cc2-c2ccc(F)cc2F)C(=O)NC3)nn1 [Compound 163, N-(2-(6-(2,4-difluorophenyl)-1-oxoisoindolin-5-yl)phenyl)-1-methyl-1H-1,2,3-triazole-4-sulfonamide] | 1110 nM
Cc1ncc(S(=O)(=O)Nc2ccccc2-c2cc3c(cc2-c2ccc(F)cc2F)C(=O)NC3)s1 [Compound 164, N-(2-(6-(2,4-difluorophenyl)-1-oxoisoindolin-5-yl)phenyl)-2-methylthiazole-5-sulfonamide] | 955 nM
Cn1cc(S(=O)(=O)Nc2ccccc2-c2cc3c(cc2-c2ccc(F)cc2F)C(=O)NC3)cn1 [Compound 165, N-(2-(6-(2,4-difluorophenyl)-1-oxoisoindolin-5-yl)phenyl)-1-methyl-1H-pyrazole-4-sulfonamide] | 637 nM
COc1cc(C#N)ccc1-c1cc2c(cc1-c1cccc(C#N)c1)CNC2=O [Compound 166, 4-(6-(3-cyanophenyl)-3-oxoisoindolin-5-yl)-3-methoxybenzonitrile] | 2450 nM
N#Cc1cccc(-c2cc3c(cc2-c2ccc(C#N)c(F)c2)C(=O)NC3)c1 [Compound 167, 4-(6-(3-cyanophenyl)-3-oxoisoindolin-5-yl)-2-fluorobenzonitrile] | > 10000 nM
N#Cc1cccc(-c2cc3c(cc2-c2ccc(O)cc2F)C(=O)NC3)c1 [Compound 168, 3-(6-(2-fluoro-4-hydroxyphenyl)-1-oxoisoindolin-5-yl)benzonitrile] | > 10000 nM
N#Cc1cccc(-c2cc3c(cc2-c2ccc(F)cc2Cl)C(=O)NC3)c1 [Compound 169, 3-(6-(2-chloro-4-fluorophenyl)-1-oxoisoindolin-5-yl)benzonitrile] | 2250 nM
COc1ccc(F)c(-c2cc3c(cc2-c2cccc(C#N)c2)CNC3=O)c1 [Compound 170, 3-(6-(2-fluoro-5-methoxyphenyl)-1-oxoisoindolin-5-yl)benzonitrile] | > 10000 nM
COc1ccc(-c2cc3c(cc2-c2cccc(C#N)c2)CNC3=O)cc1F [Compound 171, 3-(6-(3-fluoro-4-methoxyphenyl)-1-oxoisoindolin-5-yl)benzonitrile] | 3550 nM
